Test results as given in ChEMBL document CHEMBL5260810, “Inhibition of bromodomain-containing protein 9 for the prevention of epigenetically-defined drug resistance” (Bioorg Med Chem Lett, 2017).
pIC50: −log10 of the molar value. Calls of active or inactive are those of the source.

Legend:
NOMO-1 = assay: Cytotoxicity against human NOMO-1 cells measured after 8 days; type: functional, cell-based; details: NOMO-1, 192 h
OCI-AML2 = assay: Cytotoxicity against human OCI-AML2 cells measured after 8 days; type: functional, cell-based; details: OCI-AML2, 192 h
NCI-H187 = assay: Cytotoxicity against human NCI-H187 cells measured after 8 days; type: functional, cell-based; details: NCI-H187, 192 h
NCI-H2171 = assay: Cytotoxicity against human NCI-H2171 cells measured after 8 days; type: functional, cell-based; details: NCI-H2171, 192 h
RPMI-8226 = assay: Cytotoxicity against human RPMI-8226 cells measured after 8 days; type: functional, cell-based; details: RPMI-8226, 192 h
NCI-H889 = assay: Cytotoxicity against human NCI-H889 cells measured after 8 days; type: functional, cell-based; details: NCI-H889, 192 h
[1] = Cytotoxicity against human NCE-G 120 cells measured after 8 days; type: functional, cell-based; details: NCE-G 120, 192 h
[2] = Cytotoxicity against human NCE-G 141 cells measured after 8 days; type: functional, cell-based; details: NCE-G 141, 192 h
[3] = Cytotoxicity against human GOTO.P3 cells measured after 8 days; type: functional, cell-based; details: GOTO.P3, 192 h
SU-DHL-8 = assay: Cytotoxicity against human SU-DHL-8 cells measured after 8 days; type: functional, cell-based; details: SU-DHL-8, 192 h
[4] = Cytotoxicity against human COV413B cells measured after 8 days; type: functional, cell-based; details: 192 h
[5] = Cytotoxicity against mouse 4T1-Luc cells measured after 8 days; type: functional, cell-based; details: 192 h
EFO-27 = assay: Cytotoxicity against human EFO-27 cells measured after 8 days; type: functional, cell-based; details: EFO-27, 192 h
MDA-MB-175-VII = assay: Cytotoxicity against human MDA-MB-175-VII cells measured after 8 days; type: functional, cell-based; details: 192 h
HEp-2 = assay: Cytotoxicity against human HEp-2 cells measured after 8 days; type: functional, cell-based; details: HEp-2, 192 h
HT-3 = assay: Cytotoxicity against human HT-3 cells measured after 8 days; type: functional, cell-based; details: HT-3, 192 h
ME-180 = assay: Cytotoxicity against human ME-180 cells measured after 8 days; type: functional, cell-based; details: ME-180, 192 h
[6] = Cytotoxicity against human PaTu 8988s cells measured after 8 days; type: functional, cell-based; details: 192 h
[7] = Cytotoxicity against human 51BLim 10 cells measured after 8 days; type: functional, cell-based; details: 51BLim 10, 192 h
C170 = assay: Cytotoxicity against human C170 cells measured after 8 days; type: functional, cell-based; details: C170, 192 h
[8] = Cytotoxicity against human CL-11 cells measured after 8 days; type: functional, cell-based; details: CL-11, 192 h
[9] = Cytotoxicity against human PK-45P cells measured after 8 days; type: functional, cell-based; details: 192 h
[10] = Cytotoxicity against human PK-59 cells measured after 8 days; type: functional, cell-based; details: PK-59, 192 h
T84 = assay: Cytotoxicity against human T84 cells measured after 8 days; type: functional, cell-based; details: T84, 192 h
KYSE-30 = assay: Cytotoxicity against human KYSE-30 cells measured after 8 days; type: functional, cell-based; details: KYSE-30, 192 h
[11] = Cytotoxicity against human JHH-4 cells measured after 8 days; type: functional, cell-based; details: JHH-4, 192 h
SNU-398 = assay: Cytotoxicity against human SNU-398 cells measured after 8 days; type: functional, cell-based; details: SNU-398, 192 h
SNU-638 = assay: Cytotoxicity against human SNU-638 cells measured after 8 days; type: functional, cell-based; details: SNU-638, 192 h
[12] = Cytotoxicity against human HCC1534 cells measured after 8 days; type: functional, cell-based; details: HCC1534, 192 h
[13] = Cytotoxicity against human HEC-59 cells measured after 8 days; type: functional, cell-based; details: HEC-59, 192 h
Skut1B = assay: Cytotoxicity against human Skut1B cells measured after 8 days; type: functional, cell-based; details: 192 h
[14] = biological target: GABA-A receptor; alpha-1/beta-2/gamma-2 (Homo sapiens) (UniProt P14867+P47870+P18507); assay: Inhibition of GABA alpha1/beta2/gamma2 (unknown origin) at 1 uM relative to control; type: protein-complex assay
HCC1954 = assay: Antiproliferative activity against human HCC1954 cells assessed as reduction in colony formation at 1 uM supplemented with fresh medium containing compound every 3 days by MTT staining based assay; type: functional, cell-based; details: time 9.0 day
CA46 = assay: Cytotoxicity against human CA46 cells measured after 3 days; type: functional, cell-based; details: CA46, 72 h
Daudi = assay: Cytotoxicity against human Daudi cells measured after 3 days; type: functional, cell-based; details: 72 h
[15] = Cytotoxicity against human KMS-27 cells measured after 3 days; type: functional, cell-based; details: KMS-27, 72 h
[16] = Cytotoxicity against human KMS-28PE cells measured after 3 days; type: functional, cell-based; details: 72 h
AMO1 = assay: Cytotoxicity against human AMO1 cells measured after 3 days; type: functional, cell-based; details: AMO1, 72 h
TK-10 = assay: Cytotoxicity against human TK-10 cells measured after 3 days; type: functional, cell-based; details: TK-10, 72 h
[17] = Cytotoxicity against human JHH-1 cells measured after 3 days; type: functional, cell-based; details: JHH1, 72 h
SNU-449 = assay: Cytotoxicity against human SNU-449 cells measured after 3 days; type: functional, cell-based; details: SNU-449, 72 h
NCI-H1734 = assay: Cytotoxicity against human NCI-H1734 cells measured after 3 days; type: functional, cell-based; details: NCI-H1734, 72 h
KMS-11 = assay: Cytotoxicity against human KMS-11 cells measured after 3 days; type: functional, cell-based; details: KMS-11, 72 h
[18] = Cytotoxicity against human NCE-G 122 cells measured after 3 days; type: functional, cell-based; details: NCE-G 122, 72 h
DB = assay: Cytotoxicity against human DB cells measured after 3 days; type: functional, cell-based; details: 72 h
CAMA-1 = assay: Cytotoxicity against human CAMA-1 cells measured after 3 days; type: functional, cell-based; details: CAMA-1, 72 h
HCC1419 = assay: Cytotoxicity against human HCC1419 cells measured after 3 days; type: functional, cell-based; details: HCC1419, 72 h
[19] = Cytotoxicity against human EFM-192A cells measured after 3 days; type: functional, cell-based; details: 72 h
[20] = Cytotoxicity against human Hs 839.T cells measured after 3 days; type: functional, cell-based; details: 72 h
[21] = Cytotoxicity against human NCI-H1568 cells after 8 days; type: functional, cell-based; details: NCI-H1568, 192 h
[22] = Cytotoxicity against human EFM-192A cells measured after 8 days; type: functional, cell-based; details: 192 h
HMEC = assay: Cytotoxicity against HMEC cells measured after 8 days; type: functional, cell-based; details: Homo sapiens, 192 h
[23] = Cytotoxicity against human 537-mel cells after 8 days; type: functional, cell-based; details: 192 h

C/C=C/Cn1cc(-c2ccc(C(=O)N3CCOCC3)cc2)c2cc[nH]c2c1=O
5.08: pIC50 (OCI-AML2)
8%: inhibition [14]
4.89: pIC50 (SU-DHL-8)
4.70: pIC50 (NOMO-1) | pIC50 (NCI-H187) | pIC50 (NCI-H2171) | pIC50 (RPMI-8226) | pIC50 (NCI-H889) | pIC50 [1] | pIC50 [2] | pIC50 [3] | pIC50 [4] | pIC50 [5] | pIC50 (EFO-27) | pIC50 (MDA-MB-175-VII) | pIC50 (HEp-2) | pIC50 (HT-3) | pIC50 (ME-180) | pIC50 [6] | pIC50 (C170) | pIC50 [8] | pIC50 [9] | pIC50 [10] | pIC50 (T84) | pIC50 (KYSE-30) | pIC50 [11] | pIC50 (SNU-398) | pIC50 (SNU-638) | pIC50 [12] | pIC50 [13] | pIC50 (Skut1B)
4.91: pIC50 [7]

C/C=C/Cn1cc(-c2cc(OC)c(C(=O)N3CCOCC3)cc2OC)c2cc(C)[nH]c2c1=O
inactive: Activity (HCC1954)
5.70: pIC50 [21] | pIC50 [22] | pIC50 (HMEC) | pIC50 [23]
5.30: pIC50 (CA46) | pIC50 (Daudi) | pIC50 [15] | pIC50 [16] | pIC50 (AMO1) | pIC50 (TK-10) | pIC50 [17] | pIC50 (SNU-449) | pIC50 (NCI-H1734) | pIC50 (KMS-11) | pIC50 [18] | pIC50 (DB) | pIC50 (CAMA-1) | pIC50 (HCC1419) | pIC50 [19] | pIC50 [20]
